Data: US5262521A (SRI International, priority 1991, dated 1993)
Where two headings read alike, the source gives them in different places. *1 amine or outer side, *2 acyl side, *3 side chain or, on linkers, in order; H or OH if unused. Where a SMILES comes first, the peptide text is derived from it. [ ]: non-standard residue; d: D form. CO = O=C([*:1])[*:2]

Test system: atrial peptide-degrading enzyme (ADE)
Experiment: Inhibition of ADE activity (AcAPI production from 50 μM AcAPII, HPLC)
Format: biochemical, bovine
Experimental: The concentration of enzyme and AcAPII were chosen so that approximately 80% of the AcAPII was degraded in the absence of inhibitor. The production of AcAPI was determined by integration of the AcI peak, and percent inhibition by the inhibitors was calculated.
(e.) Enzyme Inhibitor Testing: To further characterize ADE, the extent of inhibition by several known peptidase inhibitors was determined.

[1] = inhibitor 0.1 mM, 50 μM AcAPII, 1 hour, 37° C.
[2] = inhibitor 1 mM, 50 μM AcAPII, 1 hour, 37° C.

For `O=C(O)CI` [Iodoacetic acid], the “Percent Inhibition of ADE” value was 0.
With `CC(C)C[C@H](NC(=O)[C@H]1O[C@@H]1C(=O)O)C(=O)NCCCCN=C(N)N` (relative stereo) [E64, trans-Epoxysuccinyl-L-leucylamido-(4-guanidino)butane] the “Percent Inhibition of ADE” value [1] was 0%.
`C[C@H](CS)C(=O)N1CCC[C@H]1C(=O)O` [Captopril] was tested, and the “Inhibition of ADE, in words” value was “slight inhibition” and the “Percent Inhibition of ADE” value (inhibitor 0.2 mM, 50 μM AcAPII, 1 hour, 37° C.) was 33%.
`CC(C)C[C@H](NC(=O)[C@@H](N)CO)C(=O)N[C@@H](CCCNC(=N)N)C(=O)N[C@@H](CCCNC(=N)N)C(=O)N[C@@H](CO)C(=O)N[C@@H](CO)C(=O)N[C@H](C)C(=O)NCC(=O)N[C@H](C)C(=O)N[C@@H](CC(N)=O)C(=O)N[C@@H](CO)C(=O)N[C@@H](Cc1ccccc1)C(=O)N[C@@H](CCCNC(=N)N)C(=O)N[C@@H](Cc1ccc(O)cc1)C(N)=O` [(I), Ser-Leu-Arg-Arg-Ser-Ser-DAla-Gly-DAla-Asn-Ser-Phe-Arg-Tyr-NH2] (H-SLRRSS[dA]G[dA]NSFRY-NH2) was tested, and the “% Inhibition At 0.1 mM” value (Table 10) was 46%.
`CC(C)C[C@H](NC(=O)[C@@H](N)CO)C(=O)N[C@@H](CCCNC(=N)N)C(=O)N[C@@H](CCCNC(=N)N)C(=O)N[C@@H](CO)C(=O)N[C@@H](CO)C(=O)N[C@H](C)C(=O)NCC(=O)N[C@H](C)C(=O)N[C@@H](CC(N)=O)C(=O)N[C@@H](CS)C(=O)N[C@@H](Cc1ccccc1)C(=O)N[C@@H](CCCNC(=N)N)C(=O)N[C@@H](Cc1ccc(O)cc1)C(N)=O` [(IV), Ser-Leu-Arg-Arg-Ser-Ser-DAla-Gly-DAla-Asn-Cys-Phe-Arg-Tyr-NH2] (H-SLRRSS[dA]G[dA]NCFRY-NH2) was tested, and the IC50 (Table 10) was 32.5 µM and the “% Inhibition At 0.1 mM” value (Table 10) was 68%.
With `CC(C)C[C@H](NP(=O)(O)O[C@@H]1O[C@@H](C)[C@H](O)[C@@H](O)[C@H]1O)C(=O)N[C@@H](Cc1c[nH]c2ccccc12)C(=O)O` [Phosphoramidon] the “Inhibition of ADE, in words” value was “not inhibited” and the “Percent Inhibition of ADE” value (inhibitor 0.001 mM, 50 μM AcAPII, 1 hour, 37° C.) was 0%.
With `O=C(O)c1cc[c]([Hg][Cl])cc1` [p-Chloromercuribenzoate] the “Percent Inhibition of ADE” value [2] was 95%.
`CC(C)C[C@H](NC(=O)[C@@H](N)CO)C(=O)N[C@@H](CCCNC(=N)N)C(=O)N[C@@H](CCCNC(=N)N)C(=O)N[C@@H](CO)C(=O)N[C@@H](CO)C(=O)N[C@H](C)C(=O)NCC(=O)N[C@H](C)C(=O)N[C@@H](CC(N)=O)C(=O)N[C@@H](CS)C(=O)N[C@H](Cc1ccccc1)C(=O)N[C@@H](CCCNC(=N)N)C(N)=O` [(VI), Ser-Leu-Arg-Arg-Ser-Ser-DAla-Gly-DAla-Asn-Cys-DPhe-Arg-NH2] (H-SLRRSS[dA]G[dA]NC[dF]R-NH2) was tested, and the “% Inhibition At 0.1 mM” value (Table 10) was 74%.
For `CCN1C(=O)C=CC1=O` [NEM, N-ethylmaleimide], the “Inhibition of ADE, in words” value was “inhibited”, the “Percent Inhibition of ADE” value (inhibitor 5 mM, 50 μM AcAPII, 1 hour, 37° C.) was 97% and the “ADE activity inhibited by” value (text summary of Table 4) was about 100%.
In the case of `CC(C)[C@H](NC(=O)[C@H](CCCNC(=N)N)NC(=O)N[C@@H](Cc1ccccc1)C(=O)O)C(=O)N[C@H](C=O)CCCNC(=N)N` [Antipain] ({Phe-CO}-Arg-Val-Arg-aldehyde), the “Percent Inhibition of ADE” value [1] is reported as 0%.
With `CC(C)C[C@H](NC(=O)[C@@H](NC(=O)N[C@@H](Cc1ccccc1)C(=O)O)[C@@H]1CCN=C(N)N1)C(=O)N[C@H](C=O)Cc1ccccc1` [Chymostatin] the “Percent Inhibition of ADE” value [1] was 8%.
With `O=S(=O)(O)c1cc[c]([Hg][OH])cc1` [Hydroxymercuriphenyl sulfonic acid] the “Percent Inhibition of ADE” value [2] was 100%.
`NC(=O)CI` [Iodoacetamide] was tested, and the “Percent Inhibition of ADE” value [2] was 10%.
With `CC(C)C[C@H](NC(=O)[C@@H](N)CO)C(=O)N[C@@H](CCCNC(=N)N)C(=O)N[C@@H](CCCNC(=N)N)C(=O)N[C@@H](CO)C(=O)N[C@@H](CO)C(=O)N[C@H](C)C(=O)NCC(=O)N[C@H](C)C(=O)N[C@@H](CC(N)=O)C(=O)N[C@@H](CO)C(=O)N[C@H](Cc1ccccc1)C(=O)N[C@@H](CCCNC(=N)N)C(=O)N[C@@H](Cc1ccc(O)cc1)C(N)=O` [(II), Ser-Leu-Arg-Arg-Ser-Ser-DAla-Gly-DAla-Asn-Ser-DPhe-Arg-Tyr-NH2] (H-SLRRSS[dA]G[dA]NS[dF]RY-NH2) the “% Inhibition At 0.1 mM” value (Table 10) was 28%.
